Results taken from ChEMBL document CHEMBL5120746, “Novel 5-fluorouracil sensitizers for colorectal cancer therapy: Design and synthesis of S1P receptor 2 (S1PR2) antagonists” (Eur J Med Chem, 2022).
Active and inactive are the calls of the source. The rule behind the calls is not given here.

What was measured:
[1] = Downregulation of S1PR2 mRNA expression level in human SW620/5-FU cells at 20 uM measured after 24 hrs by qRT-PCR analysis; assay type: functional
[2] = tested on: SW620/5-FU; assay: Antitumor activity against human SW620/5-FU cells xenografted in SPF nude mouse assessed as reduction in tumor weight at 15 mg/kg, iv QD for 21 days; assay type: functional; set-up: scale not given: the % may be the effect or the level left; settings: time 21 day
[3] = tested on: SW620/5-FU; assay: Antitumor activity against human SW620/5-FU cells xenografted in SPF nude mouse assessed as tumor growth inhibition at 7.5 mg/kg, iv QD for 21 days and measured every 4 days in presence of 5-fluorouracil; assay type: functional; settings: 504 h, time 21 day, read-out: TGI
[4] = tested on: SW620/5-FU; assay: Antitumor activity against human SW620/5-FU cells xenografted in SPF nude mouse assessed as reduction in tumor weight at 7.5 mg/kg, iv QD for 21 days; assay type: functional; set-up: scale not given: the % may be the effect or the level left; settings: time 21 day
[5] = tested on: Mus musculus; assay: Downregulation of DPD expression in tumor of SPF nude mouse xenografted with human SW620/5-FU cells administered intravenously QD for 21 days by Western blot analysis; assay type: functional; settings: dose 7.5-15 mg/kg, route iv, time 21.0 day, DDE = dose-dependent effect
[6] = tested on: SW620/5-FU; assay: Downregulation of DPD expression level in human SW620/5-FU cells measured after 12 hrs by Western blot analysis; assay type: functional, cell-based; settings: dose 5-40 µM, DDE = dose-dependent effect
[7] = tested on: Mus musculus; assay: Downregulation of DPD expression in liver of SPF nude mouse xenografted with human SW620/5-FU cells at 15 to 30 mg/kg, iv QD for 21 days in presence of 5-fluorouracil by Western blot analysis; assay type: functional, organism-based; settings: dose 15-30 mg/kg, time 21.0 day
[8] = Downregulation of DPD expression in tumor of SPF nude mouse xenografted with human SW620/5-FU cells at 30 mg/kg, iv QD for 21 days in presence of 5-fluorouracil by Western blot analysis; assay type: functional; settings: time 21 day
[9] = Initial drug concentration in Sprague-Dawley rat blood at 1 mg/kg, iv measured up to 24 hrs by HPLC-MS/MS analysis; assay type: ADME, organism-based
[10] = tested on: NCM460; assay: Cytotoxicity against human NCM460 cells assessed as reduction in cell viability at 5 to 80 uM in presence of 5-fluorouracil; assay type: toxicity, cell-based; settings: ncm460, 80 µM, dose 5-80 µM
[11] = Apparent volume of distribution in Sprague-Dawley rat plasma at 1 mg/kg, iv measured up to 24 hrs by HPLC-MS/MS analysis; assay type: ADME, organism-based; settings: in vivo

With Cn1ncc2c(-c3ccc(F)cc3)cc(NNC(=O)Nc3cc(Cl)nc(Cl)c3)nc21 as the molecule, how does the Activity [1] read?
Its Activity is 25%.

What about the Activity [2] of the same molecule?
Its Activity is 12.34%.

What about the inhibition in vivo at 7.5 mg/kg [3] of the same molecule?
Its inhibition in vivo at 7.5 mg/kg is 43.2%.

And the Activity [4]?
Its Activity is 8.68%.

And the Activity [5]?
Its Activity is “Dde”.

And the Activity [6]?
The Activity was “Dde”.

What about the Activity [7] of the same molecule?
The Activity was “Active”.

And the Activity [8]?
Its Activity is 0.05.

And the C0 at 24 h [9]?
The C0 at 24 h was 4970 ng/mL.

What about the Activity [10] of the same molecule?
Its Activity is “Toxic”.

And the “Vd(app)” value [11]?
The value was 2 L/kg.
